Laboratory results from US20210386791A1, “METHODS OF CELLULAR REPROGRAMMING” (TissueTech, Inc., priority 2018, published 2021).

Assays:
[1] = tested on: human corneal myofibroblasts; experiment: Reversal of TGFβ1-induced human corneal myofibroblasts on immobilized HC-HA/PTX3; format: cell-based; conditions: day 4 and day 7
Experimental: HCF were cultured in DMEM+10% FBS until 70% confluence. The cells were serum-starved for 1 day and treated with 10 ng/ml TGFβ1 for 3 days to induce myofibroblasts.
To reverse fibroblasts or myofibroblasts into keratocytes, fibroblasts or myofibroblasts were cultured on immobilized HC-HA/PTX3 in DMEM+10% FBS for 3 days using the samples from the cells on plastic and HA as the controls. Some of the cell cultures were extended to up to 7 days of culture to monitor the expression of α-SMA formation. […]
The samples of human corneal fibroblasts, myofibroblasts and corneal keratocytes were air-dried and fixed in 4% formaldehyde, pH 7.0, for 15 min at room temperature, rehydrated in PBS, incubated with 0.2% Triton X-100 for 15 min, and rinsed 3 times with PBS for 5 min each. […] The samples were then counterstained with Hoechst 33342 and analyzed in Zeiss LSM 700 confocal microscope (Thornhood, N.Y.). […]
Cell lysates were prepared in RIPA buffer and resolved on 4-15% (w/v) gradient acrylamide gels under denaturing and reducing conditions for Western blotting. […] Immunoreactive proteins were detected with Western Lighting Chemiluminescence (PerkinElmer, Waltham, Mass.).

[2] = tested on: human corneal fibroblasts (HCF); experiment: Timing course analysis of SDF1/CXCR4 and BMP signaling in HCF; format: cell-based; conditions: time course

hyaluronic acid [HA]
staining of α-SMA [1]: retained their characteristic staining of α-SMA
time of promoted CXCR4 mRNA expression [2]: not HA
time to aggregation in HCF [2]: not HA
